# From ChEMBL document CHEMBL1201862, “PubChem BioAssay data set” (2004)
#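 Dose response: 5 concentrations. Exposure: 48 h. Format: 96-well plates. Endpoint: linear interpolation; highest concentration if not reached. GI50 marks 50% less growth.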 Calls of active or inactive are those of the source. Rule as the data show it: active = GI50 up to about 1.1 µM and inactive = higher.
# Legend:
# Test in all cases: NCI anticancer screen, dose series, 48 h
# NCI-H23 = system: NCI-H23
# OVCAR-5 = system: OVCAR-5
# K562 = system: K562
# ACHN = system: ACHN
# SK-MEL-28 = system: SK-MEL-28
# HOP-62 = system: HOP-62
# COLO 205 = system: COLO 205
# IGROV-1 = system: IGROV-1
# M14 = system: M14
# HCT-116 = system: HCT-116
# HL-60 = system: HL-60
# KM12 = system: KM12
# SF-295 = system: SF-295
# SF-268 = system: SF-268
# MDA-MB-435 = system: MDA-MB-435
# A549 = system: A549
# SN12C = system: SN12C
# UO-31 = system: UO-31
# OVCAR-4 = system: OVCAR-4
# SR = system: SR
Compound,GI50 (NCI-H23),GI50 (OVCAR-5),GI50 (K562),GI50 (ACHN),GI50 (SK-MEL-28),GI50 (HOP-62),GI50 (COLO 205),GI50 (IGROV-1),GI50 (M14),GI50 (HCT-116),GI50 (HL-60),GI50 (KM12),GI50 (SF-295),GI50 (SF-268),GI50 (MDA-MB-435),GI50 (A549),GI50 (SN12C),GI50 (UO-31),GI50 (OVCAR-4),GI50 (SR)
COc1nc(N)nc2c1n(C)c[n+]2C,> 100 µM (inactive),> 100 µM (inactive),> 100 µM (inactive),> 100 µM (inactive),> 100 µM (inactive),> 100 µM (inactive),> 100 µM (inactive),> 100 µM (inactive),> 100 µM (inactive),> 100 µM (inactive),> 100 µM (inactive),> 100 µM (inactive),> 100 µM (inactive),> 100 µM (inactive),> 100 µM (inactive),> 100 µM (inactive),> 100 µM (inactive),> 100 µM (inactive),–,–
CCCCc1ccc(Nc2nc(OC)c3ncn(C4CC(O)C(CO)O4)c3n2)cc1 (configuration not stated),18 µM (inactive),35.4 µM (inactive),6.15 µM (inactive),16.4 µM (inactive),–,34 µM (inactive),14.2 µM (inactive),12.5 µM (inactive),28.9 µM (inactive),15.8 µM (inactive),2.05 µM (inactive),16.5 µM (inactive),18.5 µM (inactive),16.6 µM (inactive),17.7 µM (inactive),16.8 µM (inactive),13.3 µM (inactive),19.2 µM (inactive),18 µM (inactive),–
CC1=C(/C=C/C(C)=C/C=C/C(C)=C/C=C/C=C(C)/C=C/C=C(C)/C=C/C2=C(C)C(=O)C(O)CC2(C)C)C(C)(C)CC(O)C1=O (configuration not stated),> 100 µM (inactive),> 100 µM (inactive),> 100 µM (inactive),> 100 µM (inactive),> 100 µM (inactive),> 100 µM (inactive),> 100 µM (inactive),> 100 µM (inactive),> 100 µM (inactive),> 100 µM (inactive),> 100 µM (inactive),> 100 µM (inactive),> 100 µM (inactive),> 100 µM (inactive),–,> 100 µM (inactive),> 100 µM (inactive),> 100 µM (inactive),> 100 µM (inactive),> 100 µM (inactive)
C[C@@]12CCC(=O)c3coc(c31)C(=O)c1cc3c(cc12)C(=O)C=CC3=O [HELENAQUINONE],12.5 µM (inactive),20 µM (inactive),> 22.2 µM (inactive),16.5 µM (inactive),16.3 µM (inactive),> 100 µM (inactive),16 µM (inactive),25.9 µM (inactive),14.5 µM (inactive),15.4 µM (inactive),2.45 µM (inactive),24.7 µM (inactive),16.7 µM (inactive),18.8 µM (inactive),–,45.2 µM (inactive),16.6 µM (inactive),17.2 µM (inactive),18.2 µM (inactive),30.1 µM (inactive)
O=C(CCc1nnc(S)[nH]1)NC12CC3CC(CC(C3)C1)C2,> 100 µM (inactive),> 100 µM (inactive),> 100 µM (inactive),> 100 µM (inactive),> 100 µM (inactive),> 100 µM (inactive),> 100 µM (inactive),> 100 µM (inactive),> 100 µM (inactive),> 100 µM (inactive),> 100 µM (inactive),> 100 µM (inactive),> 100 µM (inactive),> 10 µM (inactive),–,> 100 µM (inactive),> 100 µM (inactive),> 100 µM (inactive),> 100 µM (inactive),1 µM (active)
Cc1nn2c(nc1=O)sc1ccc3ccccc3c12,> 100 µM (inactive),> 100 µM (inactive),> 100 µM (inactive),> 100 µM (inactive),> 100 µM (inactive),> 100 µM (inactive),> 100 µM (inactive),> 100 µM (inactive),> 100 µM (inactive),> 100 µM (inactive),> 100 µM (inactive),> 100 µM (inactive),> 100 µM (inactive),> 100 µM (inactive),–,> 100 µM (inactive),> 100 µM (inactive),> 100 µM (inactive),> 100 µM (inactive),> 100 µM (inactive)
CCOC(=O)/C(C#N)=C1\N[C@H](C(=O)OCC)CO1,> 100 µM (inactive),> 100 µM (inactive),> 100 µM (inactive),> 100 µM (inactive),> 100 µM (inactive),> 100 µM (inactive),> 100 µM (inactive),> 100 µM (inactive),> 100 µM (inactive),> 100 µM (inactive),> 100 µM (inactive),> 100 µM (inactive),> 100 µM (inactive),> 100 µM (inactive),–,> 100 µM (inactive),> 100 µM (inactive),> 100 µM (inactive),> 100 µM (inactive),> 100 µM (inactive)
Cc1cc(N(CCC#N)S(C)(=O)=O)ccc1C=O,> 100 µM (inactive),> 100 µM (inactive),> 100 µM (inactive),> 100 µM (inactive),> 100 µM (inactive),> 100 µM (inactive),> 100 µM (inactive),> 100 µM (inactive),> 100 µM (inactive),> 100 µM (inactive),> 100 µM (inactive),> 100 µM (inactive),> 100 µM (inactive),> 100 µM (inactive),–,> 100 µM (inactive),> 100 µM (inactive),> 100 µM (inactive),> 100 µM (inactive),> 100 µM (inactive)
COc1ccc(CC(C)N)cc1 (configuration not stated) [PARA-METHOXYAMPHETAMINE],> 100 µM (inactive),> 100 µM (inactive),> 100 µM (inactive),> 100 µM (inactive),> 100 µM (inactive),> 100 µM (inactive),> 100 µM (inactive),> 100 µM (inactive),> 100 µM (inactive),> 100 µM (inactive),> 100 µM (inactive),> 100 µM (inactive),> 100 µM (inactive),> 100 µM (inactive),–,> 100 µM (inactive),> 100 µM (inactive),> 100 µM (inactive),> 100 µM (inactive),> 100 µM (inactive)
O=c1[nH]c(=O)n(C2OC(CO)C(O)C2O)c2nc(-c3ccc(-c4ccccc4)cc3)cnc12 (configuration not stated),> 100 µM (inactive),> 100 µM (inactive),> 100 µM (inactive),> 100 µM (inactive),–,> 100 µM (inactive),> 100 µM (inactive),> 100 µM (inactive),81.8 µM (inactive),> 100 µM (inactive),–,> 100 µM (inactive),> 100 µM (inactive),> 100 µM (inactive),> 100 µM (inactive),> 100 µM (inactive),> 100 µM (inactive),> 100 µM (inactive),> 100 µM (inactive),–
COCN1C(=O)[C@@H]2CCCN2C(=O)c2cc(N)ccc21,> 100 µM (inactive),> 100 µM (inactive),–,> 100 µM (inactive),> 100 µM (inactive),> 100 µM (inactive),< 0.01 µM (active),> 100 µM (inactive),> 100 µM (inactive),> 100 µM (inactive),–,> 100 µM (inactive),> 100 µM (inactive),> 100 µM (inactive),> 100 µM (inactive),> 100 µM (inactive),> 100 µM (inactive),> 100 µM (inactive),> 100 µM (inactive),–
CCN1C(=O)C(=C/C=C/c2ccc(OC)cc2)C(=O)N(CC)C1=S,> 100 µM (inactive),> 100 µM (inactive),31.3 µM (inactive),17.7 µM (inactive),–,18.6 µM (inactive),18.5 µM (inactive),16.3 µM (inactive),22.1 µM (inactive),17.8 µM (inactive),7.5 µM (inactive),20.3 µM (inactive),60.4 µM (inactive),24.6 µM (inactive),21.6 µM (inactive),> 100 µM (inactive),18.2 µM (inactive),40.3 µM (inactive),95.5 µM (inactive),–
CCN(CC)c1ccc(C(=C2C=CC(=[N+](CC)CC)C=C2)c2ccccc2)cc1,0.0283 µM (active),0.134 µM (active),0.0213 µM (active),0.0313 µM (active),0.0537 µM (active),0.102 µM (active),0.0307 µM (active),0.0689 µM (active),0.0163 µM (active),0.0324 µM (active),< 0.01 µM (active),0.0324 µM (active),0.0248 µM (active),0.0366 µM (active),–,0.0348 µM (active),0.0254 µM (active),0.0366 µM (active),0.0353 µM (active),0.0224 µM (active)
CC(=O)c1nc(C#N)c(N)o1,> 100 µM (inactive),> 100 µM (inactive),> 100 µM (inactive),> 100 µM (inactive),> 100 µM (inactive),> 100 µM (inactive),> 100 µM (inactive),> 100 µM (inactive),> 100 µM (inactive),> 100 µM (inactive),–,> 100 µM (inactive),> 100 µM (inactive),> 100 µM (inactive),> 100 µM (inactive),> 100 µM (inactive),> 100 µM (inactive),> 100 µM (inactive),> 100 µM (inactive),–
COc1ccc(/C=N/N=C(\N)NO)cc1F,29.9 µM (inactive),13.9 µM (inactive),8 µM (inactive),10.1 µM (inactive),> 100 µM (inactive),20.5 µM (inactive),10.5 µM (inactive),31.3 µM (inactive),14.2 µM (inactive),27 µM (inactive),27.4 µM (inactive),29.4 µM (inactive),23 µM (inactive),17.1 µM (inactive),–,14.3 µM (inactive),26.7 µM (inactive),14 µM (inactive),7.45 µM (inactive),15.9 µM (inactive)
